Results published in patent publication EP0302626A2, “Insecticidal compounds” (IMPERIAL CHEMICAL INDUSTRIES PLC, priority 1987, dated 1989).
Values joined by “and” are separate entries in the source; they are usually repeats but may differ in a detail not shown here. Equal entries are not always repeated. Where two headings read alike, the source gives them in different places. Marks after values point to notes of the source that are not given here.

What was measured:
Type in all cases: in vivo
[1] = system: Tetranychus urticae (spider mites - adult); test: insecticidal mortality test, contact, French bean leaf; conditions: Tetranychus urticae, 72 h; for mortality at 100 ppm: read-out: grading of mortality, Tua, 100 ppm, 3 days
Procedure: (§1) The activity of the Product was determined using a variety of insect pests. The Product was used in the form of liquid preparations containing 500, 250 or 100 parts per million (ppm) by weight of the Product. The preparations were made by dissolving the Product in acetone and diluting the solutions with water containing 0.01% by weight of a wetting agent sold under the trade name "LlSSAPOL" NX until the liquid preparations contained the required concentration of the Product. "Lissapol" is a Registered Trade Mark.
(§2) The test procedure adopted with regard to each pest was basically the same and comprised supporting a number of the pests on a medium which was usually a host plant or a foodstuff on which the pests feed, and treating either or both the pests and the medium with the preparations. The mortality of the pests was then assessed at periods usually varying from one to three days after the treatment.
(§3) The results of the tests are given in Table III for each of the Products, at the rate in parts per million given in the second column as a grading of mortality designated as A, B or C wherein A indicates 80-100% mortality, B indicates 50-79% mortality and C indicates less than 50% mortality.
(§4) In Table 111 the pest organism used is designated by a letter code and the pests species, the support medium or food, and the type and duration of test is given in Table II.

[2] = system: Myzus persicae (aphids); test: insecticidal mortality test, contact, Chinese Cabbage leaf; conditions: 72 h, read-out: grading of mortality, MP
Procedure: as §1, §2, §3, §4

[3] = system: Nephotettix cincticeps (green leaf hopper - nymphs); test: insecticidal mortality test, contact, rice plant; conditions: 100 ppm, contact, rice plant, read-out: grading of mortality, NC
Procedure: as §1, §2, §3, §4

[4] = system: Heliothis virescens (tobacco budworm - larvae); test: insecticidal mortality test, residual, cotton leaf; conditions: residual, cotton leaf, read-out: grading of mortality, HV
Procedure: as §1, §2, §3, §4

[5] = system: Spodoptera exigua (lesser army worm - larvae); test: insecticidal mortality test, residual, cotton leaf; conditions: read-out: grading of mortality, SP
Procedure: as §1, §2, §3, §4

[6] = system: Diabrotica balteata (rootworm larvae); test: insecticidal mortality test, residual, filter paper/maize seed; conditions: read-out: grading of mortality, DB
Procedure: as §1, §2, §3, §4

[7] = system: Blattella germanica (cockroach nymphs); test: insecticidal mortality test, residual, plastic pot; conditions: 72 h, read-out: grading of mortality, BG
Procedure: as §1, §2, §3, §4

[8] = system: Musca domestica (houseflies - adults); test: insecticidal mortality test, contact, cotton wool/sugar; conditions: read-out: grading of mortality, MD
Procedure: as §1, §2, §3, §4

[9] = system: Blattella germanica (adult males); test: Blattella germanica knockdown test; conditions: for mortality at 250 ppm / pest or weed control at 250 ppm: Blattella germanica; for mortality at 250 ppm: 48 h; for mortality at 250 ppm / % MORTALITY 48 hrs: insects held at 25°C and 65% relative humidity for 48 hours; for mortality at 250 ppm / pest or weed control at 250 ppm / % KNOCKDOWN OBSERVED 15 min / % MORTALITY 48 hrs / % KNOCKDOWN OBSERVED 20 min: tests 1 and 2 are repeats; for pest or weed control at 250 ppm: topical, Tetramethrin: mean of 27 observations; for pest or weed control at 250 ppm / % KNOCKDOWN OBSERVED 15 min / % KNOCKDOWN OBSERVED 20 min: 250 ppm in kerosene, 1 cm3 sprayed onto 10 adult males; for KT₅₀: time taken to knockdown 50% of test insects; for KT₅₀ / KT₉₀: Tetramethrin: mean of 3 assessments; for KT₉₀: time taken to knockdown 90% of test insects; for % MORTALITY 48 hrs: 2880 min
Procedure: The test compound was dissolved in acetone (2 cm³) and the solution diluted to a concentration of 250 ppm with kerosene. 1 cm³ Of this preparation was sprayed onto 10 Blattella germanica (adult males) held in a netted plastic pot in a Burkhard potter Tower. Assessment of knockdown was performed at intervals of 5 minutes up to a total of 20 minutes. On removal from the Burkhard Potter Tower, the insects were held at 25°C and 65% relative humidity for 48 hours, and an assessment of mortality performed. Each test was repeated.
In some tests, additional knockdown assessment was performed at intervals of 1, 2, 3 and 4 minutes, and KT₅₀ and KT₉₀ values determined (the time taken, in minutes, to knockdown 50% and 90% respectively of test insects).

[10] = system: Musca domestica (adult females); test: Musca domestica knockdown test; conditions: 1 cm3 of 30 ppm solution in acetone, Kearns and March chamber, 20 adult females, observed over 10 minutes; average of 2 replicates (* single replicate, ** average of 7 tests)
Procedure: 1 cm³ Of a 30 ppm solution of the test chemical in acetone was sprayed into a Kearns and March chamber containing 20 Musca domestica (adult females). Knockdown was observed over a period of 10 minutes and KT₅₀ and KT₉₀ values (the time taken for 50% and 90% of the insects to be knocked down) were calculated from the observations. The results given in Table V represent average KT values of 2 replicates except where otherwise stated.

[11] = 250 ppm spray, read-out: % MORTALITY 48 hrs
[12] = 5 min, 5 min, read-out: % KNOCKDOWN OBSERVED 5 min
[13] = 10 min, 10 min, read-out: % KNOCKDOWN OBSERVED 10 min
[14] = 48 h, test duration of 2 days (footnote +)

SMILES | mortality at 100 ppm [1] [%] | mortality at 100 ppm [2] [%] | mortality at 100 ppm [7] [%] | mortality at 250 ppm [9, 11] [%] | pest or weed control at 250 ppm [9, 12] [%] | KT₅₀ [10] | KT₉₀ [10] | KT₅₀ ([9]; 250 ppm spray) | KT₉₀ ([9]; 250 ppm spray) | pest or weed control at 250 ppm [9, 13] [%] | % KNOCKDOWN OBSERVED 15 min [9] [%] | % MORTALITY 48 hrs ([9]; 250 ppm spray) | mortality at 100 ppm [3, 14] [%] | mortality at 100 ppm [4, 14] [%] | mortality at 100 ppm ([5]; 48 h) [%] | mortality at 100 ppm ([6]; 48 h) [%] | mortality at 100 ppm ([8]; 72 h) [%] | % KNOCKDOWN OBSERVED 20 min [9] [%] | further results
CC1(C)C(C=C(Cl)C(F)(F)F)C1C(=O)OCc1c(F)c(F)c(CCl)c(F)c1F (racemic) [Product III, 4-(chloromethyl)-2,3,5,6-tetrafluorobenzyl (1RS,cis)-3-(Z-2-chloro-3,3,3-trifluoroprop-1-en-1-yl)-2,2-dimethylcyclopropanecarboxylate] | 80 to 100 | 80 to 100 | 80 to 100 | 100 | 100 | 10 min | 10 min | – | – | – | – | – | – | – | – | – | – | – | mortality at 100 ppm ([3]; 72 h, 3 days): 80 to 100%; mortality at 100 ppm ([4]; 72 h, 3 days): 80 to 100%; mortality at 100 ppm ([5]; 72 h): 80 to 100%; mortality at 100 ppm ([6]; 72 h): 80 to 100%; mortality at 100 ppm ([8]; 24 h): < 50%
CC(C)=CC1C(C(=O)OCN2C(=O)C3=C(CCCC3)C2=O)C1(C)C (centres unmarked) [Tetramethrin, reference compound] | – | – | – | – | 80 | 4.0** mins | 7.5** mins | 1.7** mins | 3.2** mins | 100 | – | – | – | – | – | – | – | – | mortality at 250 ppm ([9]; read-out: % MORTALITY 48 hrs, 250 ppm spray): 50%
CC=NNc1c(F)c(F)c(COC(=O)C2C(C=C(Cl)C(F)(F)F)C2(C)C)c(F)c1F (stereo not drawn) [Product XIV, E/Z-4-(ethylidenehydrazino)-2,3,5,6-tetrafluorobenzyl (1RS, cis)-3-(Z-2-chloro-3,3,3-trifluoroprop-1-en-1-yl)-2,2-dimethylcyclopropanecarboxylate] | – | – | – | – | – | 6.6 min | 9.4 min | – | – | – | 100 | 50% and 90% | – | – | – | – | – | – | mortality at 500 ppm ([1]; read-out: grading of mortality, Tua, 500 ppm, 3 days): < 50%; mortality at 500 ppm [2]: 80 to 100%; mortality at 500 ppm ([4]; 72 h, 500 ppm, 3 days): 80 to 100%; mortality at 500 ppm ([6]; 72 h): 80 to 100%; mortality at 500 ppm [7]: 80 to 100%; mortality at 500 ppm ([8]; 24 h): 80 to 100%
CC1(C)C(/C=C(\F)C(F)(F)F)C1C(=O)OCc1c(F)c(F)c(CN=[N+]=[N-])c(F)c1F (mixture of isomers) [Product XXVIII, 4-(azidomethyl)-2,3,5,6-tetrafluorobenzyl (1RS, cis/trans)-3-(Z-2,3,3,3-tetrafluoroprop-1-en-1-yl)2,2-dimethylcyclopropanecarboxylate] | < 50 | 80 to 100 | 80 to 100 | 100 | – | – | – | 6.4 min and 12.6 min | 9.3 min and 18.3 min | – | 70 | – | 80 to 100 | 80 to 100 | 80 to 100 | 80 to 100 | 80 to 100 | 100 | –
CC1(C)C(C=C(Cl)C(F)(F)F)C1C(=O)OCc1c(F)c(F)c(CCC#N)c(F)c1F (racemic) [Product XXI, 4-(2-cyanoethyl)-2,3,5,6-tetrafluorobenzyl (1RS, cis)-3-(Z-2-chloro-3,3,3-trifluoroprop-1-en-1-yl)-2,2-dimethylcyclopropanecarboxylate] | < 50 | 80 to 100 | < 50 | – | 60 | – | – | 4.2 min and 3.6 min | 8.8 min and 8.2 min | 100 | – | 60% and 100% | 80 to 100 | 80 to 100 | < 50 | < 50 | < 50 | – | –
CC(C)=NOCc1c(F)c(F)c(COC(=O)[C@@H]2[C@@H](/C=C(\Cl)C(F)(F)F)C2(C)C)c(F)c1F (racemic) [Product XXIII, 4-[(prop-2-ylidenamino)oxymethyl]-2,3,5,6-tetrafluorobenzyl (1RS, trans)-3-(Z-2-chloro-3,3,3-trifluoroprop-1-en-1-yl)-2,2-dimethylcyclopropanecarboxylate] | 80 to 100 | 80 to 100 | < 50 | 100 | – | – | – | – | 9.3 min | – | 10 | – | 80 to 100 | < 50 | 80 to 100 | 80 to 100 | < 50 | 10 | –
CC(=O)SCc1c(F)c(F)c(COC(=O)[C@@H]2[C@@H](/C=C(\Cl)C(F)(F)F)C2(C)C)c(F)c1F (racemic) [Product XXVII, 4-(acetylthiomethyl)-2,3,5,6-tetrafluorobenzyl (1RS, trans)-3-(Z-2-chloro-3,3,3-trifluoroprop-1-en-1-yl)-2,2-dimethylcyclopropanecarboxylate] | 80 to 100 | 80 to 100 | < 50 | 100 | – | – | – | – | – | – | 40 | 80% | 80 to 100 | 80 to 100 | 80 to 100 | 80 to 100 | 80 to 100 | 40 | –
CC(=O)SCc1c(F)c(F)c(COC(=O)[C@@H]2[C@H](/C=C(\Cl)C(F)(F)F)C2(C)C)c(F)c1F (racemic) [Product XXVI, 4-(acetylthiomethyl)-2,3,5,6-tetrafluorobenzyl (1RS, cis)-3-(Z-2-chloro-3,3,3-trifluoroprop-1-en-1-yl)-2,2-dimethylcyclopropanecarboxylate] | 80 to 100 | 80 to 100 | 80 to 100 | 100 | – | – | – | – | – | – | 60 | – | 80 to 100 | 80 to 100 | 80 to 100 | 80 to 100 | 80 to 100 | 100 | –
C#CCSCc1c(F)c(F)c(COC(=O)[C@@H]2[C@H](/C=C(\Cl)C(F)(F)F)C2(C)C)c(F)c1F (racemic) [Product XXV, 4-[(prop-2-yn-1-yl)thiomethyl]-2,3,5,6-tetra fluorobenzyl (1RS, cis)-3-(Z-2-chloro-3,3,3-trifluoroprop-1-en-1-yl)-2,2-dimethylcyclopropanecarboxylate] | 80 to 100 | 80 to 100 | 80 to 100 | – | – | – | – | 2.5 min and 3.6 min | 4.5 min and 8.3 min | 100 | – | – | 80 to 100 | 80 to 100 | 80 to 100 | 80 to 100 | 80 to 100 | – | –
